From patent US6939566B2, “Microbicidal formulations and methods to control microorganisms” (priority 1999, dated 2005)

How the values were obtained:
[1] = test system: E. coli, Stafelococus, Bascillus, and Salmonella; test: Bactericidal efficacy of diluted disinfectants on actively growing pathogenic bacteria; type: cell-based; conditions: H2O2 absent; about 51 ppm complex silver
Method: Again, these prepared solutions were poured into dark bottles.
The above concludes the preparation of these disinfectants. However, to utilize these mixtures as bactericides, 5 ml of each bottled solution was added to 45 ml of double distilled-de-ionized water (10% by volume). […] The upper and lower concentration limits may be different if desired, depending on the nature of the desired application. For the samples where H2O2 is present, the active concentration of the disinfectant should be around 56,000 ppm.
The diluted solutions were then tested on several kinds of actively growing pathogenic bacteria to ascertain their effectiveness. Different strains of pathogenic bacteria were employed for the testing; namely, E. coli, Stafelococus, Bascillus, and Salmonella.

[2] = test system: freshly-cut roses; test: Preservation of cut flowers and plants; conditions: examined after 15 days; silver approximately 166 ppb in tap water for the invention's sample
Method: A silver concentration of approximately 166 ppb was used. Both inoculated and controlled samples were tested in which freshly-cut roses were placed in the prepared solution and tap water, respectively. Cut roses were chosen because they are very susceptible to slight changes in the surrounding area and are equally susceptible to chemicals. For comparative purposes, other preservative type chemicals were also tested; namely, silver thiosulfate and hypochlorite.
In the case of the two other chemicals used, it was observed that there was discoloration of the petals, loss of leaves and petals, and dehydration.

Substance | order of potency among the amino acid complexes [1] | condition of cut roses [2]
Silver-Arginine Complex [Example 3] | most potency | 
Silver-glutamic Acid Complex [Example 1] |  | no black or brown burns on the petals and there were no wilted flowers, and the stems and leaves were in good condition
